Assay results reported in patent US5104858A, “Sensitizing multidrug resistant cells to antitumor agents” (priority 1988, dated 1992).
Entries after “also recorded” stand apart in the source; their conditions may differ. Where two headings read alike, the source gives them in different places. Each block holds one compound with its values, some of them ahead of it.

Tests used:
[1] = target: T1, Calmodulin (Bos taurus, UniProt P62157); test: biochemical
[2] = Norman and Drummond; cited from earlier work
[3] = test system: MCF-7/DOX cells; test: Inhibition of MCF-7/DOX cell growth, microtiter methylene blue staining assay, 48 h; assay type: cell-based, human
[4] = test system: MCF-7/DOX cells; test: Antagonism of multidrug resistance (sensitization to doxorubicin) in MCF-7/DOX cells, MDR Ratio; assay type: cell-based, human; settings: for MDR Ratio (IC50 doxorubicin alone / IC50 doxorubicin in presence of modifier): 48 h
[5] = test system: MCF-7/DOX cells; test: Cellular accumulation of cis and trans-flupenthixol in MCF-7/DOX cells; assay type: cell-based, human; settings: for cell associated drug concentration at 3 μM / cell associated drug concentration at 10 μM / cell associated drug concentration at 100 μM: 3 hour incubation; for cellular accumulation of thioxanthene isomers, in words: MDR cells
Procedure: Cells were washed three times in cold PBS by centrifugation at 100× g for 10 minutes, resuspended in 2 ml of 0.3N HCl in 50% ethanol, and sonicated for 10 pulses at 200 ws with a Tekmar cell sonicator (Tekmar, Cincinnati, Ohio). Following centrifugation at 1000× g for 30 minutes, the supernatant was removed and assayed for drug content with a Perkin-Elmer 512 spectrofluorometer (Norwalk, Conn.). Optimal excitation and emission wavelengths for both thioxanthene isomers were determined to be 320 nm and 400 nm, respectively.

[6] = target: T1, Calmodulin; settings: Norman and Drummond; cited from earlier work
[7] = test system: MCF-7/DOX cells; settings: Fine et al; cited from earlier work
[8] = test system: clinically resistant cancer; settings: with doxorubicin or bleomycin, Phase I, cited from earlier work
[9] = test system: P-glycoprotein; settings: MDR Chinese hamster lung cells, Center; cited from earlier work
[10] = test system: MCF-7/DOX cells; test: Cellular accumulation of doxorubicin in MDR MCF-7/DOX cells; assay type: cell-based, human; settings: 3 hours, 15 μM doxorubicin
[11] = test system: acute schizophrenia; settings: humans; cited from earlier work
[12] = test system: L1210/DOX cells; settings: Ganapathi and Grabowski; cited from earlier work
[13] = test system: KC/ADR10 human breast cells; settings: Ahn et al; cited from earlier work
[14] = Homo sapiens, MCF7-DOX, 48 h, MCF-7/DOX cells, 48 h, drug alone; read-out: IC50 for cell growth inhibition
[15] = Homo sapiens, MCF7-DOX, 48 h, read-out: IC50 for cell growth inhibition
[16] = Homo sapiens, MCF7-DOX, 48 h, read-out: concentration which alone produces 10% inhibition of cell growth
[17] = Homo sapiens, MCF7-DOX, 48 h; read-out: Cell Growth Inhibition IC50 (Table 5)
[18] = MCF-7/DOX cells, 48 h, drug alone; read-out: IC50 for cell growth inhibition
[19] = Homo sapiens, MCF7-DOX, 48 h; read-out: IC50 for cell growth inhibition
[20] = Homo sapiens, MCF7-DOX, 48 h, MCF-7/DOX cells, 48 h, structurally related compounds; read-out: Cell Growth Inhibition IC50 (Table 5)
[21] = read-out: IC50 for cell growth inhibition

Structure (SMILES): O=c1[nH]c2ccccc2n1C1CCN(CCCC(c2ccc(F)cc2)c2ccc(F)cc2)CC1 [Pimozide]
IC50 [1]: 7 µM
octanol:buffer partition coefficient (log P) [2]: 4.88

IC50 [3, 14]: 400 µM
IC50 [1]: 183 µM
Structure (SMILES): CN(C)CCCN1c2cc(O)ccc2Sc2cc(O)c(Cl)cc21 [3,8-Dihydroxychlorpromazine]
MDR Ratio (IC50 doxorubicin alone / IC50 doxorubicin in presence of modifier) [4]: 0.9

Structure (SMILES): CN(C)CCCN1c2ccccc2[S+]([O-])c2ccc(Cl)cc21 (stereo not shown) [Chlorpromazine Sulfoxide]
inhibition of cell growth, comparison in words [3]: lost most of its antiproliferative effect
IC50 [3, 15]: 500 µM
IC50 [1]: 2200 µM
anti-MDR activity, comparison in words [4]: retained its effect against MDR

Structure (SMILES): OCCN1CCN(CC/C=C2/c3ccccc3Sc3ccc(C(F)(F)F)cc32)CC1 [cis-Flupenthixol]
IC10 [3, 16]: 3 µM
IC50 [3, 17]: 24 µM
cell associated drug concentration at 3 μM [5]: 830 ± 80 pmol/10^6 cells
cell associated drug concentration at 10 μM [5]: 1420 ± 250 pmol/10^6 cells
cell associated drug concentration at 100 μM [5]: 7000 ± 330 pmol/10^6 cells
cellular accumulation of thioxanthene isomers, in words [5]: equivalent, dose-dependent fashion
octanol:buffer partition coefficient (log P) [2]: 4.25
anti-CaM effect of thioxanthene stereoisomers [6]: no difference between cis and trans-flupenthixol

Structure (SMILES): CN(C)CCCN1c2ccccc2Sc2ccccc21 [Promazine]
IC50 [3, 14]: 26 µM
IC50 [3, 18]: 27 µM
IC50 [1]: 110 µM
MDR Ratio (IC50 doxorubicin alone / IC50 doxorubicin in presence of modifier) [4]: 1.2
sensitization of MCF-7/DOX cells to doxorubicin ([4]; modifier at 10% growth inhibitory concentration): 20%

Structure (SMILES): CN1CCN(CCCN2c3ccccc3Sc3ccc(C(F)(F)F)cc32)CC1 [Trifluoperazine]
IC50 [3, 19]: 19 µM
reversal of phorbol ester effects on anthracycline resistance [7]: reversed
dose limiting side effects in combination trials [8]: Extrapyramidal side effects have proven to be dose limiting
dose limiting side effects in combination trials ([8]; listed as trifluperazine): extrapyramidal side effects
phosphorylation of P-glycoprotein, doxorubicin accumulation and cytotoxicity [9]: increased phosphorylation of this protein in MDR Chinese hamster lung cells and enhanced doxorubicin accumulation and cytotoxicity

IC50 [3, 14]: 63 µM
IC50 [1]: 82 µM
Structure (SMILES): CN(C)CCCN1c2cc(Cl)ccc2Sc2cc(O)c(O)cc21 [7,8-Dihydroxychlorpromazine]
MDR Ratio (IC50 doxorubicin alone / IC50 doxorubicin in presence of modifier) [4]: 0.8

IC50 [3, 14]: 7 µM
IC50 [1]: 40 µM
Structure (SMILES): CN(C)CCCCN1c2ccccc2Sc2ccc(Cl)cc21 [2-Chloro-10-[4-(dimethylamino)butyl] phenothiazine]
MDR Ratio (IC50 doxorubicin alone / IC50 doxorubicin in presence of modifier) [4]: 2.0

Structure (SMILES): COc1cccc2c1C(=O)c1c(O)c3c(c(O)c1C2=O)C[C@@](O)(C(=O)CO)C[C@@H]3O[C@H]1C[C@H](N)[C@H](O)[C@H](C)O1 [Doxorubicin]
IC50 [3, 15]: 12 µM
resistance to doxorubicin of MCF-7/DOX cells relative to parental cell line ([3]; human, mcf-7/dox cells): approximately 200 fold
doxorubicin accumulation, fold less in MCF-7/DOX than in sensitive cell line [10]: approximately 10 fold

IC50 [3, 20]: 3 µM
IC50 [1]: 42 µM
Structure (SMILES): CCN(CC)CCCC(C)Nc1c2ccc(Cl)cc2nc2ccc(OC)cc12 (stereo not shown) [Quinacrine]
MDR Ratio (IC50 doxorubicin alone / IC50 doxorubicin in presence of modifier) [4]: 1.3

IC50 [3, 14]: 15 µM
IC50 [1]: 25 µM
Structure (SMILES): CN(C)CCCN1c2ccccc2Sc2c(Cl)cccc21 [4-Chlorpromazine]
MDR Ratio (IC50 doxorubicin alone / IC50 doxorubicin in presence of modifier) [4]: 1.4

Structure (SMILES): OCCN1CCN(CCCN2c3ccccc3Sc3ccc(Cl)cc32)CC1 [Perphenazine]
IC50 [3, 19]: 32 µM

Structure (SMILES): CN(C)CCCN1c2ccccc2Sc2ccc(Cl)cc21 [Chlorpromazine]
IC50 [3, 19]: 8 µM
IC50 [3, 21]: 8 to 12 µM
sensitization of MCF-7/DOX cells to doxorubicin [4]: 60%
octanol:buffer partition coefficient (log P) [2]: 4.04

IC50 [3, 14]: 8 to 12 µM
IC50 [3, 18]: 11 µM
IC50 [1]: 38 µM
Structure (SMILES): NCCCN1c2ccccc2Sc2ccc(Cl)cc21 [Didesmethylchlorpromazine]
MDR Ratio (IC50 doxorubicin alone / IC50 doxorubicin in presence of modifier) [4]: 1.1

IC50 [3, 20]: 3 µM
IC50 [1]: 3 µM
Structure (SMILES): OC1(c2ccc(Cl)c(C(F)(F)F)c2)CCN(CCCC(c2ccc(F)cc2)c2ccc(F)cc2)CC1 [Penfluridol]
MDR Ratio (IC50 doxorubicin alone / IC50 doxorubicin in presence of modifier) [4]: 2.0

IC50 [3, 14]: 21 µM
IC50 [1]: 74 µM
Structure (SMILES): CN(C)CCCN1c2ccccc2Sc2cccc(Cl)c21 [1-Chlorpromazine]
MDR Ratio (IC50 doxorubicin alone / IC50 doxorubicin in presence of modifier) [4]: 1.3

IC50 [3, 14]: 8 to 12 µM
IC50 [3, 18]: 12 µM
IC50 [1]: 28 µM
Structure (SMILES): CCN(CC)CCCN1c2ccccc2Sc2ccc(Cl)cc21 [Chlorproethazine]
MDR Ratio (IC50 doxorubicin alone / IC50 doxorubicin in presence of modifier) [4]: 2.2

IC50 [3, 14]: 27 µM
IC50 [1]: 60 µM
Structure (SMILES): CN(C)CCN1c2ccccc2Sc2ccc(Cl)cc21 [2-Chloro-10-[2-(dimethylamino)ethyl] phenothiazine]
MDR Ratio (IC50 doxorubicin alone / IC50 doxorubicin in presence of modifier) [4]: 1.5

Structure (SMILES): OCCN1CCN(CC/C=C2\c3ccccc3Sc3ccc(C(F)(F)F)cc32)CC1 [trans-Flupenthixol]
IC50 [3, 15]: 25 µM
IC10 [3, 16]: 6 µM
IC50 [3, 17]: 25 µM
cell associated drug concentration at 3 μM [5]: 420 ± 80 pmol/10^6 cells
cell associated drug concentration at 10 μM [5]: 1000 ± 250 pmol/10^6 cells
cell associated drug concentration at 100 μM [5]: 6000 ± 330 pmol/10^6 cells
cellular accumulation of thioxanthene isomers, in words [5]: equivalent, dose-dependent fashion
octanol:buffer partition coefficient (log P) [2]: 4.25
extrapyramidal side effects / toxicity of flupenthixol isomers [11]: lacks these side effects; also recorded: far less toxic; also recorded: apparent lack of extrapyramidal side effects
anti-CaM effect of thioxanthene stereoisomers [6]: no difference between cis and trans-flupenthixol

IC50 [3, 14]: 8 to 12 µM
IC50 ([3]; MCF-7/DOX cells, 48 h, drug alone; listed as desmethylchlorpromazine; read-out: IC50 for cell growth inhibition): 8 µM
IC50 [3, 18]: 8 µM
IC50 [1]: 45 µM
Structure (SMILES): CNCCCN1c2ccccc2Sc2ccc(Cl)cc21 [Desmethylchlorpromazine]
MDR Ratio (IC50 doxorubicin alone / IC50 doxorubicin in presence of modifier) [4]: 1.2

IC50 [3, 14]: 20 µM
IC50 [1]: 42 µM
Structure (SMILES): CSc1ccc2c(c1)N(CCCN(C)C)c1ccccc1S2 [Thiomethylpromazine]
MDR Ratio (IC50 doxorubicin alone / IC50 doxorubicin in presence of modifier) [4]: 1.5

Structure (SMILES): CN(C)CCCN1c2ccccc2CCc2ccccc21 [Imipramine]
IC50 [3, 20]: 19 µM
IC50 [1]: 125 µM

IC50 [3, 14]: 10 µM
IC50 [1]: 24 µM
Structure (SMILES): CN(C)CCCN1c2ccccc2Sc2cc(Cl)ccc21 [3-Chlorpromazine]
MDR Ratio (IC50 doxorubicin alone / IC50 doxorubicin in presence of modifier) [4]: 1.3

IC50 [3, 14]: 50 µM
IC50 [1]: 68 µM
Structure (SMILES): CN(C)CCCN1c2ccc(O)cc2Sc2ccc(Cl)cc21 [7-Hydroxychlorpromazine]
relative potency in inhibiting cell growth (fold less potent) ([3]; versus chlorpromazine): 6 fold
MDR Ratio (IC50 doxorubicin alone / IC50 doxorubicin in presence of modifier) [4]: 1.0

Structure (SMILES): CC(CN1c2ccccc2Sc2ccccc21)N(C)C (stereo not shown) [Promethazine]
inhibition of cell growth, comparison in words [3]: less potent inhibitor of cell growth than promazine
IC50 [3, 19]: 29 µM

Structure (SMILES): CC1CNCCN1S(=O)(=O)c1cccc2cnccc12 (stereo not shown) [H-7, 1-(5-isoquinolinylsulfonyl)-2-methylpiperazine]
sensitization of L1210/DOX cells [12]: failed to sensitize L1210/DOX cells
sensitization of KC/ADR10 human breast cells [13]: does sensitize KC/ADR10 human breast cells

Structure (SMILES): CN(C)CCCN1c2ccccc2Sc2ccc(C(F)(F)F)cc21 [Trifluopromazine]
IC50 [3, 19]: 16 µM
IC50 [3, 21]: 14 µM
